≈ marks a conversion by molar mass, not a printed value. Each block holds one molecule with its values, some of them ahead of it.
Columns and labels:
Test in all cases: ≥ marks a high value that may be exact or a test limit, other limits are often not marked, values filed in µg/mL are converted to µM
[1] = system: Pseudomonas aeruginosa ATCC 27853
[2] = system: Staphylococcus aureus ATCC 29313
[3] = system: Xanthomonas axonopodis pv. glycines ISBF 327
[4] = system: Escherichia coli ATCC 25922
[5] = system: Pseudomonas syringae pv. syringae EPS 94
[6] = system: Erwinia amylovora PMV 6076
[7] = system: Xanthomonas campestris pv. Vesicatoria 2133-2
[8] = system: Escherichia coli
[9] = system: Staphylococcus aureus
[10] = system: Pseudomonas aeruginosa PAO1
[11] = system: Pseudomonas aeruginosa
[12] = system: Pseudomonas aeruginosa 447
[13] = system: Escherichia coli ML-35p
[14] = system: Haemophilus influenzae ATCC 49247
[15] = system: Candida albicans ATCC 2002
[16] = system: Klebsiella aerogenes
[17] = system: Staphylococcus aureus ATCC 25923
[18] = system: Klebsiella pneumoniae ATCC 13883
[19] = system: Haemophilus influenzae ATCC 49766
[20] = system: Enterococcus faecalis ATCC 29212
[21] = system: Staphylococcus aureus ATCC 43300
[22] = system: Klebsiella pneumoniae ATCC 700603
[23] = system: Enterobacter cloacae
[24] = system: Enterobacter cloacae ATCC 13047
[25] = system: Candida albicans
[26] = system: Staphylococcus epidermidis ATCC 35984
[27] = system: Staphylococcus aureus ATCC 33591
[28] = system: Aspergillus niger
[29] = system: Leuconostoc mesenteroides PTCC 1445
[30] = system: Bacillus cereus PTCC 1435
[31] = system: Pseudomonas aeruginosa PTCC 2834
[32] = system: Klebsiella pneumoniae PTCC 4231
[33] = system: Escherichia coli PTCC 2433
[34] = system: Bacillus subtilis PTCC 4533
[35] = system: Aspergillus fumigatus
[36] = system: Staphylococcus aureus ATCC 25023

Structure (SMILES): CC[C@H](C)[C@H](NC(=O)[C@@H](NC(=O)[C@H](CCCN=C(N)N)NC(=O)[C@@H]1CCCN1C(=O)[C@H](CCCCN)NC(=O)[C@H](CCCCN)NC(=O)[C@H](Cc1ccccc1)NC(=O)[C@H](Cc1ccccc1)NC(=O)[C@H](CCCCN)NC(=O)[C@H](CCCCN)NC(=O)[C@H](C)NC(=O)[C@H](CCCN=C(N)N)NC(=O)[C@H](CCCCN)NC(=O)[C@H](CCCCN)NC(=O)[C@@H](NC(=O)[C@H](CO)NC(=O)[C@H](CC(N)=O)NC(=O)[C@H](CCCCN)NC(=O)[C@H](CC(C)C)NC(=O)[C@H](CCCCN)NC(=O)[C@H](CCCCN)NC(=O)[C@H](Cc1ccccc1)NC(=O)[C@H](Cc1ccccc1)NC(=O)[C@@H](N)CCCCN)C(C)C)C(C)C)C(=O)NCC(=O)N[C@H](C(=O)N[C@@H](CO)C(=O)N[C@H](C(=O)N1CCC[C@H]1C(=O)N[C@@H](Cc1ccccc1)C(=O)O)[C@@H](C)CC)C(C)C [KFFKKLKNSVKKRAKKFFKKPRVIGVSIPF]
- MIC [1]: 1.74 µM (≈ 6.25 µg/mL)
- MIC [8]: 1.74 µM (≈ 6.25 µg/mL)
- MIC [9]: 1.74 µM (≈ 6.25 µg/mL)
- MIC [10]: 1.74 µM (≈ 6.25 µg/mL)
- MIC [11]: 3.48 µM (≈ 12.5 µg/mL)
- MIC [12]: 1.74 µM (≈ 6.25 µg/mL)
- MIC [13]: 0.869 µM (≈ 3.13 µg/mL)
- MIC [14]: 0.869 µM (≈ 3.13 µg/mL)
- MIC [15]: ≥ 55.6 µM
- MIC [16]: 1.74 µM (≈ 6.25 µg/mL)
- MIC [17]: 0.869 µM (≈ 3.13 µg/mL)
- MIC [18]: 1.74 µM (≈ 6.25 µg/mL)
- MIC [19]: 0.869 µM (≈ 3.13 µg/mL)
- MIC [20]: 6.95 µM (≈ 25 µg/mL)
- MIC [21]: 1.74 µM (≈ 6.25 µg/mL)
- MIC [22]: 0.869 µM (≈ 3.13 µg/mL)
- MIC [23]: 0.869 µM (≈ 3.13 µg/mL)
- MIC [24]: 6.95 µM (≈ 25 µg/mL)
- MIC [25]: > 55.6 µM
- MIC [4]: 1.74 µM (≈ 6.25 µg/mL)

Structure (SMILES): CC[C@H](C)[C@H](NC(=O)[C@H](CCCCN)NC(=O)[C@@H](NC(=O)[C@H](Cc1ccccc1)NC(=O)[C@H](C)NC(=O)[C@H](CCCCN)NC(=O)CNC(=O)[C@H](Cc1ccccc1)NC(=O)[C@H](CCCCN)NC(=O)[C@@H](N)CCCCN)C(C)C)C(=O)N[C@@H](CC(C)C)C(=O)N[C@@H](CCCCN)C(N)=O [KKFGKAFVKILK]
- MIC [1]: 16.1 µM (≈ 22.6 µg/mL)
- MIC [26]: ≥ 64.3 µM
- MIC [17]: 182 µM (≈ 256 µg/mL)
- MIC [27]: ≥ 182 µM

Structure (SMILES): CC[C@H](C)[C@H](NC(=O)[C@H](CO)NC(=O)[C@H](CCCCN)NC(=O)[C@H](CC(C)C)NC(=O)[C@H](CCCN=C(N)N)NC(=O)[C@@H](N)CC(C)C)C(=O)N[C@H](C(=O)N[C@@H](CO)C(=O)N[C@@H](Cc1ccc(O)cc1)C(=O)N[C@@H](C)C(=O)N[C@@H](CCCCN)C(=O)N[C@@H](CCCCN)C(=O)N[C@H](C(=O)N[C@@H](CC(C)C)C(=O)O)C(C)C)C(C)C [LRLKSIVSYAKKVL]
- MIC [28]: 15.2 µM (≈ 24.6 µg/mL)
- MIC [29]: 12.2 µM (≈ 19.8 µg/mL)
- MIC [30]: 9.33 µM (≈ 15.1 µg/mL)
- MIC [31]: 15 µM (≈ 24.2 µg/mL)
- MIC [32]: 16.5 µM (≈ 26.7 µg/mL)
- MIC [33]: 17.5 µM (≈ 28.3 µg/mL)
- MIC [34]: 10.9 µM (≈ 17.6 µg/mL)
- MIC [35]: 11.9 µM (≈ 19.3 µg/mL)
- MIC [25]: 12.6 µM (≈ 20.4 µg/mL)

Structure (SMILES): CC(C)C[C@H](NC(=O)[C@H](CCCN=C(N)N)NC(=O)[C@H](CC(C)C)NC(=O)[C@H](CC(C)C)NC(=O)[C@H](CC(C)C)NC(=O)[C@H](CC(C)C)NC(=O)[C@H](CC(C)C)NC(=O)[C@H](CCCCN)NC(=O)[C@H](Cc1c[nH]c2ccccc12)NC(=O)[C@@H](N)CCCN=C(N)N)C(N)=O [RWKLLLLLRL]
- MIC [36]: 1.51 µM (≈ 2 µg/mL)

More lines, main results first:

- MIC [1]: 20 µM (≈ 59.7 µg/mL)
- MIC [3]: 1 µM (≈ 2.98 µg/mL)
- MIC [4]: 10 µM (≈ 29.8 µg/mL)
Structure (SMILES): CC[C@H](C)[C@H](NC(=O)[C@H](C)NC(=O)[C@H](C)NC(=O)[C@H](C)NC(=O)[C@H](C)NC(=O)[C@H](C)NC(=O)[C@H](C)NC(=O)[C@H](C)N)C(=O)N[C@@H](CCCCN)C(=O)N[C@@H](CCSC)C(=O)N[C@@H](CC(C)C)C(=O)N[C@@H](CCSC)C(=O)N[C@@H](CC(=O)O)C(=O)N[C@@H](CC(C)C)C(=O)N[C@H](C(=O)N[C@@H](CC(N)=O)C(=O)N[C@@H](CCC(=O)O)C(=O)N[C@@H](CCCN=C(N)N)C(=O)N[C@H](C(=O)N[C@@H](CCSC)C(=O)N[C@@H](C)C(=O)N[C@@H](CC(C)C)C(=O)N[C@@H](CC(N)=O)C(=O)N[C@@H](CCCCN)C(=O)N[C@@H](CCCCN)C(=O)N[C@@H](C)C(=O)N[C@@H](CCCCN)C(=O)N[C@@H](CCCCN)C(N)=O)[C@@H](C)CC)C(C)C [AAAAAAAIKMLMDLVNERIMALNKKAKK]
- MIC [2]: 20 µM (≈ 59.7 µg/mL)

- MIC [5]: 8.66 µM (≈ 27.5 µg/mL)
- MIC [6]: 14.1 µM (≈ 45 µg/mL)
- MIC [7]: 14.1 µM (≈ 45 µg/mL)
Structure (SMILES): CC[C@H](C)[C@H](NC(=O)[C@H](CCCCN)NC(=O)[C@H](CCCCN)NC(=O)[C@H](Cc1ccccc1)NC(=O)[C@H](CC(C)C)NC(=O)[C@H](CCCCN)NC(=O)[C@H](CCCCN)NC(=O)[C@H](C)NC(=O)[C@@H]1CCCN1C(=O)CNC(=O)[C@H](C)NC(=O)[C@H](CC(C)C)NC(=O)[C@H](Cc1ccc(O)cc1)NC(=O)[C@H](CCCCN)NC(=O)[C@H](CC(C)C)NC(=O)[C@@H](NC(=O)[C@H](CCCCN)NC(=O)[C@H](CCCCN)NC(=O)[C@H](Cc1ccccc1)NC(=O)[C@H](CC(C)C)NC(=O)[C@H](CCCCN)NC(=O)[C@H](CCCCN)NC(=O)CN)[C@@H](C)CC)C(=O)N[C@@H](CC(C)C)C(=O)N[C@@H](CCCCN)C(=O)N[C@@H](Cc1ccc(O)cc1)C(=O)N[C@@H](CC(C)C)C(=O)O [GKKLFKKILKYLAGPAKKLFKKILKYL]
